The text below walks through data of article PMC3912200, “Structural and Functional Characterization of Cargo-Binding Sites on the μ4-Subunit of Adaptor Protein Complex 4” (PLoS ONE, 2014).

Assay [1] addresses T1, recombinant μ4 C-terminal domain, wild-type (Homo sapiens, UniProt O00189).
T1 construct: recombinant C-terminal domain of human μ4 (residues 160-453); GST followed by TEV protease cleavage site (N, cleaved yes); made in house; host or cells: E. coli B834(DE3)pLysS
T1 sequence (O00189 160-453): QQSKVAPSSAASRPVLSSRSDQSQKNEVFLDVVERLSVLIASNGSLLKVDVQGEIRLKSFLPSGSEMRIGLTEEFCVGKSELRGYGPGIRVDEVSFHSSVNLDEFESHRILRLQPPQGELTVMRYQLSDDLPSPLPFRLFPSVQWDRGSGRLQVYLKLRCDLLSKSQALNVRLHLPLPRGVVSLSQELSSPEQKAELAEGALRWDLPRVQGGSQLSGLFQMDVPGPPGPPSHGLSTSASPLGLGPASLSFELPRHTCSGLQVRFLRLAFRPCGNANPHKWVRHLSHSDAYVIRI
As to the kind of experiment: Isothermal titration calorimetry with wild-type μ4. Format: binding. The following applies: canonical YXXØ signal peptides, 28°C, pH 7.4, stoichiometry and Kd N/D. (In general: ITC needs no label: the signal is the heat of the interaction.)
Procedure: Recombinant μ4 C-terminal variants were dialyzed overnight at 4°C against excess ITC buffer (50 mM Tris-HCl, pH 7.4, 150 mM NaCl), and an APP peptide ([sequence]), a CD63 peptide (SGYEVM), or a TGN38 peptide (SDYQRL; New England Peptide, Gardner, MA) were also prepared in ITC buffer. All ITC experiments were carried out at 28°C using an iTC200 instrument (GE Healthcare). […] Titration curves were analyzed using Origin software (MicroCal). The binding constant corresponding to each μ4 construct was calculated by fitting the curves to a one-site model.
Isothermal titration calorimetry of recombinant C-terminal domain of wild-type μ4 with the TGN38 SDYQRL peptide (C), or the CD63 SGYEVM peptide (D).

The subject of the next assay is C-terminal domain of μ3A. The following applies: previously shown; ref [18]; cited from earlier work. From the text: (§1) This tyrosine-based signal is related to the YXXØ motif, which is the signal contained in the cytosolic tail of transmembrane proteins that binds to a different site on the μ2 subunit of AP-2 [28], or on the μ3A subunit of AP-3 [30]. In this study, we wanted to determine whether this putative second binding site on μ4, referred here as the μ2-binding site (Figure 1, A and B), played any role in the binding to the YKFFE signal of APP ...

A further assay concerns cytosolic tail of APP. Description: Yeast two-hybrid (Y2H) analysis of μ4 with the APP tail. Format: binding. The following applies: mutations at μ2-binding site; growth on -His plates, 30°C. From the text:
The cloning of the tail of APP (residues 649–695), full-length human μ4, and all the other yeast two-hybrid (Y2H) constructs, and the cloning of the C-terminal domain of μ4 for expression in E. coli was described previously. To generate a construct for mammalian expression, full-length human μ4 was obtained by PCR amplification and cloned into the EcoRI and SalI sites of pEGFP-N1 (BD BiosciencesClontech, Mountain View, CA) including a stop-codon before the GFP coding sequence. The cloning of APP-GFP carrying the double mutation F615P/D664A was described previously. Single amino acid substitutions were introduced using the QuikChange mutagenesis kit (Stratagene, La Jolla, CA). Y2H assays were performed as previously described. A set of pCI-neo (Promega) constructs encoding hemagglutinin (HA)-epitope tagged wild-type or mutants of human μ4 was a generous gift of J. Bonifacino and R. Mattera (Cell Biology and Metabolism Program, NICHD, NIH). The nucleotide sequences of all recombinant constructs were confirmed by dideoxy sequencing.
Figure 1 Yeast two-hybrid analysis of the interaction of μ4 with the cytosolic tail of APP. (A) Superposition of the surface and ribbon representations of human wild-type μ4 C-terminal domain (pdb entry 3L81). The insets show an enlargement of the μ4-binding site and the putative μ2-binding site with residues chosen for the yeast two-hybrid (Y2H) analysis. The APP peptide (TYKFFEQ; stick model) bound to the μ4-binding site is in yellow, and the EGFR peptide (FYRALM; stick model; pdb entry 1BW8) superposed to the putative μ2-binding site is in magenta. (B) Sequence alignment of the C-terminal domain of the μ subunits of known crystal structure depicting critical residues at the corresponding μ2- and μ4-binding sites. Disordered loops are in yellow letters, and arrows and cylinders represent β-strands and α-helices, respectively. M.m., Mus musculus; R.n., Rattus norvegicus; H.s., Homo sapiens. (C) and (D) Yeast were co-transformed with plasmids encoding Gal4bd fused to the cytosolic tail of the amyloid precursor protein (APP) indicated on the left, and Gal4ad fused to wild-type or mutant μ4 constructs indicated on top of each panel. (C) Y2H analysis of μ4 with mutations on the YKFFE binding site (μ4-binding site). (D) Y2H analysis of μ4 with mutations on a putative YXXØ binding site (μ2-binding site). Mouse p53 fused to Gal4bd and SV40 large T antigen (T Ag) fused to Gal4ad were used as controls. Co-transformed cells were spotted onto His-deficient (-His) or His-containing (+His) plates and incubated at 30°C. Growth is indicative of interactions. Some mutations on either of the two sites affect the interaction of μ4 with the cytosolic tail of APP.

The next assay concerns canonical YXXØ signals. The following applies: previous reports; ref [31]; cited from earlier work.
Text: as §1

In assay [2] the target is T2, recombinant C-terminal domain of human μ4-D190S (human, UniProt O00189 160-453, D190S).
T2 construct: also called D190S mutant; source: E. coli B834(DE3)pLysS, purified (glutathione-Sepharose 4B, TEV cleavage, Ni-NTA, Superdex 200); not shown: GST, N-terminal, cleaved
T2 sequence (looked up): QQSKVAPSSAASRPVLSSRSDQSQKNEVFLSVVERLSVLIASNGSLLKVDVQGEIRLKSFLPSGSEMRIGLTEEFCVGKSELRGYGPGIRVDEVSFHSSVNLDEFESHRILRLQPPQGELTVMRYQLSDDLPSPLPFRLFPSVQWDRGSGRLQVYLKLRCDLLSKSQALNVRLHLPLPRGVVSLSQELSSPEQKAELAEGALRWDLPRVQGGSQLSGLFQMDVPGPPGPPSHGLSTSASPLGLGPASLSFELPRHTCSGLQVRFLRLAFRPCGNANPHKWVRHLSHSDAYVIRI
As to the kind of experiment: ITC; 28°C, 50 mM Tris-HCl pH 7.4, 150 mM NaCl; chamber 250–500 µM μ4 construct, peptide 2.5–5.0 mM in 16 injections; one-site model. The following applies: both partners purified.

As for “SDYQRL [TGN38 SDYQRL peptide, peptide bearing the canonical YXXØ signal of TGN38]”, the “interaction (ITC)” value in assay [1] is given as “undetectable”. Further, the “binding to C-terminal domain of μ3A” value in the assay with C-terminal domain of μ3A is “bind well”.
Regarding “SGYEVM [CD63 SGYEVM peptide, peptide bearing the canonical YXXØ signal of CD63]”, the “interaction (ITC)” value in assay [1] is reported as “undetectable”. Further, the “binding to C-terminal domain of μ3A” value with C-terminal domain of μ3A is given as “bind well”.

B1: D190A: μ4 mutant, μ2-binding site, Y2H construct (protein)
chain: MISQFFILSSKGDPLIYKDFRGDSGGRDVAELFYRKLTGLPGDESPVVMHHHGRHFIHIRHSGLYLVVTTSENVSPFSLLELLSRLATLLGDYCGSLGEGTISRNVALVYELLDEVLDYGYVQTTSTEMLRNFIQTEAVVSKPFSLFDLSSVGLFGAETQQSKVAPSSAASRPVLSSRSDQSQKNEVFLAVVERLSVLIASNGSLLKVDVQGEIRLKSFLPSGSEMRIGLTEEFCVGKSELRGYGPGIRVDEVSFHSSVNLDEFESHRILRLQPPQGELTVMRYQLSDDLPSPLPFRLFPSVQWDRGSGRLQVYLKLRCDLLSKSQALNVRLHLPLPRGVVSLSQELSSPEQKAELAEGALRWDLPRVQGGSQLSGLFQMDVPGPPGPPSHGLSTSASPLGLGPASLSFELPRHTCSGLQVRFLRLAFRPCGNANPHKWVRHLSHSDAYVIRI
modifications: left off: Gal4 activation domain, end not stated, kept
With B1, the “effect of mutation on interaction of the APP tail with μ4 (Y2H)” value with cytosolic tail of APP is “abrogated”. Also, the “interaction of μ4 mutant with canonical YXXØ signals” value in the assay on canonical YXXØ signals is recorded as “loss of these interactions”.

B2: APP peptide ENPTYKFFEQ (peptide)
peptide: ENPTYKFFEQ
notes: amyloid precursor protein (APP), stretch of the cytosolic tail with the YKFFE signal (Y687 to Q692 printed); numbers count on: APP695; also called APP sorting signal; source: synthetic peptide (New England Peptide)
As to B2, in assay [2], the binding result was “binds”.
